Counter-ions that a name gives are not always drawn. Like-named read-outs stand apart in the source and are kept apart here.
Key:
[1] = literature, cited from earlier work
[2] = cited from earlier work
[3] = literature, Wilson et al.; cited from earlier work
[4] = p.o.; U.S. Pat. No. 3,507,885 compound; cited from earlier work
[5] = hot-plate test using rats (analgesic activity); assay type: in vivo; details: for analgesic activity: suspended with 1% methyl cellulose
[6] = narcosis potentiating activity (35 mg/kg of phenobarbital in rats); assay type: in vivo; details: i.v.; narcosis time of 35 mg/kg of phenobarbital in rats lengthened by ten times (route printed for CKN-30 complex and morphine)
Method: The narcosis time of 35 mg/kg of phenobarbital in rats is lengthened by ten times by using 0.1-0.25 mg/kg i.v. CKN-30 complex or 0.05 mg/kg of CKN-49 complex. In order to achieve similar activity more than 1 mg/kg of i.v. morphine was needed.

[7] = Wilson et al., J. Med. Chem. 19, 1165 (1976)

Structure (SMILES): CCCCCc1cc(O)c2c(c1)OC(C)(C)C1CCC(O)CC21 (stereo not shown)
- ED50 (hot plate) [1, 7]: 1.6 mg/kg
- ED50 (tail-flick) ([2]; literature, B. R. Martin et al. (1977), levorotatory form): 1.71 mg/kg

Structure (SMILES): CCCCCc1cc(O)c2c(c1)OC(C)(C)[C@@H]1CC[C@@H](O)C[C@@H]21 (relative stereo) [9-nor-9β-hydroxy-hexahydrocannabinol]
- ED50 (hot plate) [1, 7]: 2.9 mg/kg
- ED50 (hot plate) ([1]; aqueous suspension containing Emulphor emulsifying agent and ethanol): 2.9 mg/kg
- analgesic strength [3]: as strong as morphine

Structure (SMILES): CCCCCCC(C)(C)c1cc(O)c2c(c1)OC(C)(C)[C@@H]1CC[C@@H](O)C[C@@H]21 (relative stereo) [(±)-1,9β-dihydroxy-6,6-dimethyl-3-(1,1-dimethyl-1-heptyl)-6aβ,7,8,9,10,10aα-hexahydro-6H-dibenzo(bd)-pyrane]
- ED50 (tail-flick) ([2]; p.o., U.S. Pat. No. 3,507,885 compound): 0.1 to 5 mg/kg
- ED50 (mouse writhing) [4]: 1.25 mg/kg

Structure (SMILES): COCCCC(C)c1cc(O)c2c(c1)OC(C)(C)[C@@H]1CC[C@@H](O)C[C@@H]21 (relative stereo) [CKN-30, (±)-1,9β-dihydroxy-6aβ,7,8,9,10,10aα-hexahydro-6,6-dimethyl-3-[(2RS)-5-methoxy-2-pentyl]-6H-dibenzo[bd]pyrane]
- analgesic activity [5]: moderate analgesic activity

Structure (SMILES): CCOCCCC(C)c1cc(O)c2c(c1)OC(C)(C)[C@@H]1CC[C@@H](O)C[C@@H]21 (relative stereo) [CKN-49, (±)-1,9β-dihydroxy-6aβ,7,8,9,10,10aα-hexahydro-6,6-dimethyl-3-[(2RS)-5-ethoxy-2-pentyl]-6H-dibenzo[bd]pyrane]
- analgesic activity [5]: moderate analgesic activity

Structure (SMILES): CN1CC[C@]23c4c5ccc(O)c4O[C@H]2[C@@H](O)C=C[C@H]3[C@H]1C5 [morphine. HCl]
- ED50 (hot plate) [1, 7]: 1.2 mg/kg

Structure (SMILES): CN1CC[C@]23c4c5ccc(O)c4O[C@H]2[C@@H](O)C=C[C@H]3[C@H]1C5 [morphine]
- ED50 ([5]; i.v.): 3.6 mg/kg
- ED50 ([5]; s.c.): 4.6 mg/kg
- dose lengthening the narcosis time by ten times [6]: more than 1 mg/kg
